Reference: publication PMC5695911 (Cell Reports, 2017)
Read-outs that look alike come from different tables or passages of the source.

Key:
[1] = test system: human glucagon receptor (hGCGR); format: cell-based
[2] = test system: human glucagon-like peptide 1 receptor (hGLP-1R); format: cell-based; settings: COS-7 cells
INS1 cells [3] = test: cAMP accumulation in cultured rat β cells; format: cell-based
INS1 cells [4] = format: cell-based, rat
isolated rat pancreases = test: Isolated perfused rat pancreas, insulin secretion
[5] = test system: diabetic animal models (db/db and ob/ob mice); test: Administration of PG 1-61 to diabetic animal models; format: in vivo; settings: 1 pmol; db/db (12 weeks, n=5) and ob/ob mice (14-15 weeks, n=3)
[6] = test system: cultured human hepatocytes (HepG2); test: cAMP in cultured human hepatocytes; format: cell-based
[7] = test system: protein kinase A (PKA), glucose-6-phosphatase (G6P), phosphorylase kinase (PKC-1), glycogen phosphorylase (GP), phosphoenolpyruvate carboxykinase (PECK); format: cell-based, human
rats = settings: i.v., 1 pmol, 20 min

RSLQDTEEKSRSFSASQADPLSDPDQMNEDKRHSQGTFTSDYSKYLDSRRAQDFVQWLMNT [PG 1-61]
fold decreased potency compared to native glucagon, hGCGR ([1]; from LogEC50 vs glucagon): 100 fold
agonist class at hGCGR ([1]; transiently transfected COS-7 cells): full agonist
agonist class / potency in words at hGLP-1R [2]: very low potency
activation of hGLP-1R, in words ([2]; Figure 3B legend): but not the human glucagon-like peptide 1 receptor (hGLP-1R)
percent of Emax of GLP-1 reached at 1 μM, hGLP-1R ([2]; at a concentration of 1 μM): 38%
accumulation of cAMP (INS1 cells [3]): dose-dependently increased accumulation of cAMP
insulin release compared to PBS (INS1 cells [4]; 1 nM, p < 0.001): significantly stimulated insulin release
PG 1-61-induced insulin secretion after siRNA knockdown of rGCGR vs mock (INS1 cells [4]; 1 nM, p < 0.01): significantly blunted
insulin release compared to native glucagon (INS1 cells [4]; PG 1-61 1 nM): comparable to that of native glucagon
insulin secretion, tAUC (isolated rat pancreases): 3,534 ± 321 min × pM
inhibition of glucagon secretion in diabetic animals [5]: not seem to inhibit the secretion of glucagon
stimulated increase in cAMP after siRNA knockdown of hGCGR vs siRNA control ([6]; HepG2, siRNA GCGR): attenuated
cAMP ([6]; HepG2, 10–1,000 pM): stimulated cAMP production dose-dependently
protein levels of PKA, G6P, PKC-1, GP and PECK ([7]; 30-min incubation, 1,000 pM): significantly increased protein levels
protein levels of PKA, G6P, PKC-1, GP and PECK ([7]; 3 hr incubation, compared with 30 min): more pronounced effects
protein levels of the enzymes in siRNA-treated cells ([7]; siRNA GCGR-treated cells, 30-min incubation): tended to be lower
blood glucose, in words (rats): increased significantly
plasma amino acids (summed molarity) (rats): decreased significantly
plasma insulin (rats; no increase with mannitol): increased transiently
